Measurements taken from article PMC8306139, “A Novel Dialkylamino-Functionalized Chalcone, DML6, Inhibits Cervical Cancer Cell Proliferation, In Vitro, via Induction of Oxidative Stress, Intrinsic Apoptosis and Mitotic Catastrophe” (Molecules, 2021).
Read-outs that look alike come from different tables or passages of the source.

Tests used:
DU145 = test: MTT assay, DU145; format: cell-based; settings: Homo sapiens, DU-145, 72 h, read-out: IC50 ± SD Prostate DU145
Experimental: (§1) The concentration of the tested compounds that produced a 50% inhibition of cell growth (IC50) was determined.
(§2) A panel of cancer cell lines, including cervical (OV2008 and HeLa), breast (MDA-MB-231), lung (A549) and colon (LOVO), prostate (DU145), human embryonic kidney cells (HEK293), human colon fibroblast cells (CRL1459), and Chinese hamster ovary cells (CHO), were grown as adherent monolayers in flasks containing Dulbecco’s modified Eagle medium (DMEM), supplemented with 10% fetal bovine serum (FBS) and 1% penicillin and streptomycin, in a humidified incubator with 5% CO2 at 37 °C.
(§3) The cells were seeded evenly (180 μL/well) in 96-well plates, at a density of 3000–5000 cells/well and incubated with serial dilutions of the compounds ranging from 0.1 to 100 μM. The MTT dye (4 mg/ml) was added after 72 h of incubation and incubated with the cells for an additional 4 h at 37 °C, allowing the viable cells to biotransform the yellow-colored MTT into dark-blue formazan crystals. Following incubation, the medium was aspirated, and the formazan crystals were dissolved by adding 100 μL of DMSO to each well. Cytation™ 5 and Cytation™ 7 multi-mode detector (Bio Tek Instruments, Winooski, VT, USA) was used to determine the absorbance readings at a wavelength of 570 nm. The IC50 values were determined based on 3 separate experiments, with each experiment carried out in triplicate.

LOVO = test: MTT assay, LOVO; format: cell-based; settings: 72 h, read-out: IC50 ± SD Colon LOVO
Experimental: as §1, §2, §3

A549 = test: MTT assay, A549; format: cell-based; settings: read-out: IC50 ± SD Lung A549
Experimental: as §1, §2, §3

OV2008 = test: MTT assay, OV2008; format: cell-based; settings: 72 h, read-out: IC50 ± SD Cervical OV2008
Experimental: as §1, §2
(§4) The cells were seeded evenly (180 μL/well) in 96-well plates, at a density of 3000–5000 cells/well and incubated with serial dilutions of the compounds ranging from 0.1 to 100 μM. The MTT dye (4 mg/ml) was added after 72 h of incubation and incubated with the cells for an additional 4 h at 37 °C, allowing the viable cells to biotransform the yellow-colored MTT into dark-blue formazan crystals. Following incubation, the medium was aspirated, and the formazan crystals were dissolved by adding 100 μL of DMSO to each well. Cytation™ 5 and Cytation™ 7 multi-mode detector (Bio Tek Instruments, Winooski, VT, USA) was used to determine the absorbance readings at a wavelength of 570 nm. The IC50 values were determined based on 3 separate experiments, with each experiment carried out in triplicate. The selectivity of the compounds was determined by comparing their IC50 values in cervical cancer compared to the normal epithelial cell lines, HEK293, CHO, and CRL1459.

HEK293 = test: MTT assay, HEK293; format: cell-based, human; settings: read-out: IC50 ± SD Kidney HEK293
Experimental: as §1, §2, §3

MDA-MB-231 = test: MTT assay, MDA-MB-231; format: cell-based; settings: read-out: IC50 ± SD Breast MDA-MB-231
Experimental: as §1, §2, §3

HeLa = test: MTT assay, HeLa; format: cell-based; settings: 72 h, read-out: IC50 ± SD Cervical HeLa
Experimental: Table S1. The antiproliferative efficacy of the DML1-DML12 compounds on the proliferation of cervical cancer cell line.
Figure S1. The efficacy of DML6 in HeLa cancer cells. The cell-viability curve produced by HeLa cells treated with
vehicle (0 μM), 5 or 10 μM of DML6 after 72 h of incubation. Cell survival was determined using the MTT assay. The
IC50 values are represented as the means ± SD of three independent experiments performed in triplicate. […]

cancer cell lines = test: MTT assay, panel of cancer cell lines; format: cell-based
Experimental: as §1, §2, §4

| Structure (SMILES) | IC50 (DU145) [µM] | IC50 (LOVO; Homo sapiens, LoVo) [µM] | IC50 (A549; Homo sapiens, A549, 72 h) [µM] | melting point [°C] | IC50 (MDA-MB-231; Homo sapiens, MDA-MB-231, 72 h) [µM] | IC50 (HeLa) [µM] | IC50 (HeLa; Homo sapiens, HeLa) [µM] | IC50 (LOVO) [µM] | IC50 (A549; 72 h) [µM] | IC50 (MDA-MB-231; 72 h) [µM] | IC50 (OV2008) [µM] | IC50 (HEK293; Homo sapiens, HEK293, 72 h) [µM] | anti-proliferative efficacy in a wide range of cancer cell lines, compared to normal cells (cancer cell lines) | IC50 (HEK293; 72 h) [µM] |
| --- | --- | --- | --- | --- | --- | --- | --- | --- | --- | --- | --- | --- | --- | --- |
| CN(C)c1ccc(/C=C/C(=O)c2ccccn2)cc1 [DML1, (E)-3-[4-(dimethylamino)phenyl]-1-(pyridin-2-yl)prop-2-en-1-one] | > 100 | > 100 | > 100 | 126 | > 100 | 70.7 ± 2.19 | > 70 |  |  |  | > 100 | > 100 |  |  |
| CCN(CC)c1ccc(/C=C/C(=O)c2ccccn2)cc1 [DML2, (E)-3-[4-(diethylamino)phenyl]-1-(pyridin-2-yl)prop-2-en-1-one] | > 100 | > 100 | > 100 | 142 | > 100 |  | > 100 |  |  |  | > 100 | > 100 |  |  |
| COc1ccc(C(=O)/C=C/c2ccc(N(C)C)cc2)cc1 [DML3, (E)-3-[4-(dimethylamino)phenyl]-1-(4-methoxyphenyl)prop-2-en-1-one] | > 100 | > 100 | > 100 |  | > 100 |  | > 100 |  |  |  | > 100 | > 100 |  |  |
| COc1ccc(C(=O)/C=C/c2ccc(N(C)C)cc2)cc1OC [DML4, (E)-1-[3,4-dimethoxyphenyl]-3-(4-(dimethylamino)phenyl)prop-2-en-1-one] | 22.5 ± 4.9 | 66.3 ± 4.6 | 45 ± 22.6 | 86 | 26.7 ± 23.9 |  | 39.5 ± 11.4 | 45 ± 22.6 | 66.3 ± 4.6 | 26.2 ± 23.9 | 13.8 ± 7 | > 65 | moderate to good anti-proliferative efficacy | 68.5 ± 2.1 |
| COc1ccc(C2CC(c3ccc(N(C)C)cc3)=NN2c2ccccc2)cc1OC (stereo not shown) [DML10, 4-(5-(3,4-dimethoxyphenyl)-1-phenyl-4,5-dihydro-1H-pyrazol-3-yl)-N,N-dimethylaniline] | > 100 | > 100 | > 100 | 134 | > 100 |  | > 100 |  |  |  | > 100 | > 100 |  |  |
| CCN(CC)c1ccc(C2=NN(c3ccccc3)C(c3ccc(OC)cc3)C2)cc1 (stereo not shown) [DML11, N,N-diethyl-4-(5-(4-methoxyphenyl)-1-phenyl-4,5-dihydro-1H-pyrazol-3-yl)aniline] | > 100 | > 100 | > 100 | 121 | > 100 |  | > 100 |  |  |  | > 100 | > 100 |  |  |

Continued, in another order:

| IC50 (DU145) [µM] | IC50 (LOVO; Homo sapiens, LoVo) [µM] | IC50 (A549; Homo sapiens, A549, 72 h) [µM] | melting point [°C] | IC50 (MDA-MB-231; Homo sapiens, MDA-MB-231, 72 h) [µM] | IC50 (HeLa) [µM] | IC50 (HeLa; Homo sapiens, HeLa) [µM] | IC50 (LOVO) [µM] | IC50 (A549; 72 h) [µM] | IC50 (MDA-MB-231; 72 h) [µM] | Structure (SMILES) | IC50 (OV2008) [µM] | IC50 (HEK293; Homo sapiens, HEK293, 72 h) [µM] | anti-proliferative efficacy in a wide range of cancer cell lines, compared to normal cells (cancer cell lines) | IC50 (HEK293; 72 h) [µM] |
| --- | --- | --- | --- | --- | --- | --- | --- | --- | --- | --- | --- | --- | --- | --- |
| > 100 | > 100 | > 100 | 179 | > 100 |  | > 100 |  |  |  | CN(C)c1ccc(C2=NN(c3ccccc3)C(c3ccccn3)C2)cc1 (stereo not shown) [DML7, N,N-dimethyl-4-[1-phenyl-5-(pyridin-2-yl)-4,5-dihydro-1H-pyrazol-3-yl]aniline] | > 100 | > 100 |  |  |
| > 100 | > 100 | > 100 | 188 | > 100 |  | > 100 |  |  |  | CCN(CC)c1ccc(C2=NN(c3ccccc3)C(c3ccccn3)C2)cc1 (stereo not shown) [DML8, N,N-diethyl-4-[1-phenyl-5-(pyridin-2-yl)-4,5-dihydro-1H-pyrazol-3-yl]aniline] | > 100 | > 100 |  |  |
| > 100 | > 100 | > 100 | 147 | > 100 |  | > 100 |  |  |  | COc1ccc(C2CC(c3ccc(N(C)C)cc3)=NN2c2ccccc2)cc1 (stereo not shown) [DML9, 4-(5-[4-methoxyphenyl]-1-phenyl-4,5-dihydro-1H-pyrazol-3-yl)-N,N-dimethylaniline] | > 100 | > 100 |  |  |
| > 100 | > 100 | > 100 | 124 | > 100 |  | > 100 |  |  |  | CN(C)c1ccc(C2=NN(c3ccccc3)C(c3ccc(Cl)cc3Cl)C2)cc1 (stereo not shown) [DML12, 4-(5-(2,4-dichlorophenyl)-1-phenyl-4,5-dihydro-1H-pyrazol-3-yl)-N,N-dimethylaniline] | > 100 | > 100 |  |  |
